In brackets after ≈: the same amount, converted by molar mass. Read-outs that look alike come from different tables or passages of the source.
Legend:
[1] = tested on: E. coli 9637; assay: In vitro antibacterial activity (MIC), E. coli 9637; details: Escherichia coli, 9637, 18 h
[2] = tested on: K. pneumoniae 10031; assay: In vitro antibacterial activity (MIC), K. pneumoniae 10031; details: Klebsiella pneumoniae, 10031, 18 h
[3] = tested on: S. aureus 53-180; assay: In vitro antibacterial activity (MIC), S. aureus 53-180; details: Staphylococcus aureus, 53180, 18 h
[4] = tested on: P. vulgaris 6896; assay: In vitro antibacterial activity (MIC), P. vulgaris 6896; details: Proteus vulgaris, 6896, 18 h
[5] = tested on: S. aureus Smith; assay: In vitro antibacterial activity (MIC), S. aureus Smith; details: Staphylococcus aureus, 18 h
[6] = tested on: S. paratyphi 11737; assay: In vitro antibacterial activity (MIC), S. paratyphi 11737; type: cell-based; details: Salmonella enterica, 18 h
[7] = tested on: N. catarrhalis 8193; assay: In vitro antibacterial activity (MIC), N. catarrhalis 8193; details: 18 h
[8] = tested on: Plasmodium berghei KBG 173; assay: Antimalarial blood schizonticidal test in mice; type: in vivo, Plasmodium berghei (infected ICR/HA Swiss mice); set-up: ΔMST (increase in mean survival time): unit: days; details: s.c.; for ED100 / minimal effective dose: Plasmodium berghei, sc, single dose; for ED100: read-out: Lowest Dose Curing All Mice; for minimal effective dose: read-out: Min. Curing Dose; for Cure/Treat at Min. Curing Dose: at the Min. Curing Dose
Description: (§1) In addition, the invention provides compounds which have antimalarial activity in vivo as evidenced by a standard blood schizonticidal test in mice infected with Plasmodium berghei KBG 173.
(§2) Utilizing young ICR/HA Swiss mice and a standard inoculum of Plasmodium berghei KBG 173, it is possible to produce a uniform disease fatal to 100% of untreated animals within 6 to 8 days with a mean survival time of 6.2 days. Test animals weigh from 18 to 22 grams but weight variations in any given experimental or control group are confined to 2-3 grams. All animals in any given test are approximately of the same age. Animals on test are housed in metal-topped plastic cages, given a standard laboratory diet and water ad libitum.
(§3) Test animals receive an intraperitoneal injection of 0.5 ml. of 1:100 dilution of heparinized heart's blood with a minimum of 90% parasitized cells (4 × 10^7 cells), drawn from donor mice infected one week earlier with Plasmodium berghei. The donor strain is maintained by weekly passages in separate groups of mice inoculated with a 0.5 ml. of 1:500 dilution of heparinized heart's blood.
(§4) Test compounds are administered after dissolution or suspension in peanut oil. A single dose is given subcutaneously 72 hours after the mice are infected with Plasmodium berghei. At this time a 10-15 percent parasitemia has developed; the disease is well established but has not produced sufficient debility to alter the response of the host to toxic effects of the drug on test. Since treatment is withheld for three days to permit the infection to become well established and death occurs in untreated controls within 6-8 days, it is felt that this system presents a candidate compound with the maximum challenge. In order to check factors such as changes in the infectivity of Plasmodium berghei or in the susceptibility of the host or to detect technical errors, a group of infected animals treated with pyrimethamine at dose levels producing definite increases in survival time is included in a positive control in every experiment.
(§5) In each experiment test compounds are administered in graded dosages. […] However, if an active drug is toxic for the host, its toxicity may become a limiting factor; continued increases in dose levels also increase the toxic effects and may result in the diminution of survival times. Deaths prior to the sixth day, when untreated controls begin to die, are regarded as nonparasitic and become the basis for toxicity evaluations. […] In calculating mean survival time, toxic deaths and 60-day survivors are not included.
(§6) Compounds are considered active which produce a cure in at least one test animal or which produce significant increases in mean survival times of the treated animals as compared with the mean survival times of untreated controls, provided that no drug related deaths (toxicity) are noted at the active dose.

[9] = Antimalarial blood schizonticidal test in mice; type: in vivo, Plasmodium berghei (infected ICR/HA Swiss mice); set-up: ΔMST (increase in mean survival time): unit: days; details: mouse, in vivo, sc, single dose, read-out: Highest Non-Lethal Dose
Description: as §1, §2, §3, §4, §5, §6

[10] = infected mice, highest dose with no deaths for any reason
[11] = 336 h, alive on day 14 considered cured, no 60-day data
[12] = alive on day 14 considered cured

| Structure (SMILES) | MIC [1] [µg/mL] | MIC [2] [µg/mL] | MIC [3] [µg/mL] | MIC [4] [µg/mL] | MIC [5] [µg/mL] | MIC [6] [µg/mL] | MIC [7] [µg/mL] | minimal effective dose ([8]; 1440 h, 60-day survivors) [mg/kg] | Cure/Treat at Min. Curing Dose ([8]; 60-day survivors) | also measured |
| --- | --- | --- | --- | --- | --- | --- | --- | --- | --- | --- |
| N#Cc1ccccc1Cn1ccc2c3c(N)nc(N)nc3ccc21 [Example 14] | 0.244 (≈ 0.776 µM) | 0.122 (≈ 0.388 µM) | 0.244 (≈ 0.776 µM) | 1.95 (≈ 6.2 µM) | 0.244 (≈ 0.776 µM) | 0.488 (≈ 1.55 µM) | 0.061 (≈ 0.194 µM) | 10 | 1/5 | ED100 ([8]; 1440 h, 60-day survivors): 40 mg/kg; ΔMST (increase in mean survival time) ([8]; dose 10 mg. per kg.): 8.9; MTD [9, 10]: 160 mg/kg |
| Cc1cccc(Cn2ccc3c4c(N)nc(N)nc4ccc32)c1 [Example 20] | 0.488 (≈ 1.61 µM) | 1.95 (≈ 6.43 µM) | 0.488 (≈ 1.61 µM) | 1.95 (≈ 6.43 µM) | 0.976 (≈ 3.22 µM) | 1.95 (≈ 6.43 µM) | 0.031 (≈ 0.102 µM) | 5 | 4/5 | ED100 ([8]; 1440 h, 60-day survivors): 20 mg/kg; ΔMST (increase in mean survival time) ([8]; dose 5 mg. per kg.): 6.9; MTD [9, 10]: 320 mg/kg |
| Cc1ccc(Cn2ccc3c4c(N)nc(N)nc4ccc32)c(C)c1 [Example 22] | 0.976 (≈ 3.08 µM) | 0.244 (≈ 0.769 µM) | 0.244 (≈ 0.769 µM) | 7.81 (≈ 24.6 µM) | 0.244 (≈ 0.769 µM) | 3.4 (≈ 10.7 µM) | 0.0152 (≈ 0.0479 µM) | – | – | ED100 [8, 11]: 5 mg/kg; minimal effective dose [8, 11]: 5 mg/kg; Cure/Treat at Min. Curing Dose [8, 12]: 5/5; ΔMST (increase in mean survival time) ([8]; dose 2.5 mg. per kg., alive on day 14 considered cured, no 60-day data): 7.6; MTD ([9]; alive on day 14 considered cured, no 60-day data): 80 mg/kg |
| CC(C)CCn1ccc2c3c(N)nc(N)nc3ccc21 [Example 66, 7-(3-Methylbutyl)-7H-pyrrolo[3,2-f]quinazoline-1,3-diamine] | 0.976 (≈ 3.62 µM) | 0.244 (≈ 0.906 µM) | 0.976 (≈ 3.62 µM) | 3.9 (≈ 14.5 µM) | 1.95 (≈ 7.24 µM) | 3.9 (≈ 14.5 µM) | 0.0038 (≈ 0.0141 µM) | – | – | ΔMST (increase in mean survival time) ([8]; dose 320 mg. per kg.): 8.1 |
| CC(=O)c1ccccc1-n1ccc2c3c(N)nc(N)nc3ccc21 [Example 70] | 0.244 (≈ 0.769 µM) | 0.0152 (≈ 0.0479 µM) | 0.031 (≈ 0.0977 µM) | 0.976 (≈ 3.08 µM) | 0.061 (≈ 0.192 µM) | 0.488 (≈ 1.54 µM) | 0.0076 (≈ 0.0239 µM) | 40 | 1/5 | ΔMST (increase in mean survival time) ([8]; dose 40 mg. per kg.): 9.2 |
| CC(=O)c1ccc(-n2ccc3c4c(N)nc(N)nc4ccc32)cc1 [Example 71] | 0.976 (≈ 3.08 µM) | 0.122 (≈ 0.384 µM) | 0.488 (≈ 1.54 µM) | 15.6 (≈ 49.2 µM) | 1.95 (≈ 6.14 µM) | 7.81 (≈ 24.6 µM) | 0.031 (≈ 0.0977 µM) | 40 | 1/5 | ΔMST (increase in mean survival time) ([8]; dose 20 mg. per kg.): 8.8 |
| Nc1nc(N)c2c(ccc3c2ccn3-c2ccccc2[N+](=O)[O-])n1 [Example 76] | 0.976 (≈ 3.05 µM) | 0.244 (≈ 0.762 µM) | 0.244 (≈ 0.762 µM) | 3.9 (≈ 12.2 µM) | 0.244 (≈ 0.762 µM) | 1.95 (≈ 6.09 µM) | 0.031 (≈ 0.0968 µM) | 40 | 4/5 | – |
| Nc1nc(N)c2c(ccc3c2ccn3-c2ccc([N+](=O)[O-])cn2)n1 [Example 82] | > 250 | 31.3 (≈ 97.4 µM) | 3.9 (≈ 12.1 µM) | > 250 | 0.976 (≈ 3.04 µM) | > 250 | 0.031 (≈ 0.0965 µM) | – | – | minimal effective dose [8, 11]: 160 mg/kg; Cure/Treat at Min. Curing Dose [8, 12]: 1/5 |
| Cc1cc2c(ccc3nc(N)nc(N)c32)[nH]1 [Example 98, 8-Methyl-7H-pyrrolo[3,2-f]quinazoline-1,3-diamine] | 3.9 (≈ 18.3 µM) | 3.9 (≈ 18.3 µM) | 31.3 (≈ 147 µM) | 15.6 (≈ 73.2 µM) | 31.3 (≈ 147 µM) | 15.6 (≈ 73.2 µM) | 1.95 (≈ 9.14 µM) | 160 | 3/5 | ΔMST (increase in mean survival time) ([8]; dose 160 mg. per kg.): 13.9 |

— patent US4118561A, “7-(Substituted)-7H-pyrrolo[3,2-f]quinazoline-1,3-diamines” (priority 1977, dated 1978)
